Key:
[1] = biological target: T1, human liver EST (Homo sapiens, UniProt P49888); assay: ST activities in high-speed supernatants of COS-1 cells transfected with human liver EST cDNA; assay type: biochemical; set-up: expressed in transfected cells; host or cells: COS-1 cells, vector p91023(B); 100,000×g high-speed supernatant; conditions: substance is the sulfate acceptor substrate; transfected COS-1 cell preparation; 1 unit = 1 nmol sulfated product per hour at 37° C.
T1 sequence (P49888 1-294): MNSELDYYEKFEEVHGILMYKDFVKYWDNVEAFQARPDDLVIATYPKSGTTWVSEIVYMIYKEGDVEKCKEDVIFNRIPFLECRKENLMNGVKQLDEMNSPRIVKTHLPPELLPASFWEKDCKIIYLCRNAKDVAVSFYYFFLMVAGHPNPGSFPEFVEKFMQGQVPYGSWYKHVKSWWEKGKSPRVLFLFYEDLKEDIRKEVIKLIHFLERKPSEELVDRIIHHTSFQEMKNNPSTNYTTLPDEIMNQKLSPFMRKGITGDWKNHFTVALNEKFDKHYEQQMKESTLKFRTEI
Method: B. Expression in COS-1 cells. COS-1 cells were transfected with an EST cDNA expression construct in the eukaryotic expression vector p91023(B) as well as with vector alone using the DEAE-dextran method (H. Luthman et al., Nucleic Acids Res., 11, 1295-1308 (1983)). After harvesting, cell pellets were washed with 5 ml of phosphate buffered saline (PBS) and were homogenized for 30 seconds in 2 ml of 5 mM potassium phosphate buffer, pH 6.5. The homogenates were centrifuged at 15,000×g for 15 minutes at 4° C., and supernatants were centrifuged at 100,000×g for 1 hour at 4° C. Five μl aliquots of the 100,000×g "high-speed supernatants" (HSS) were assayed for ST enzymatic activities.
A. Sulfotransferase (ST) activities. The abilities of EST and DHEA ST to catalyze sulfation of various substrates were compared.
One unit of enzyme activity represented the formation of 1 nmol of sulfated product per hour of incubation at 37° C. All assays were performed in triplicate, and values reported are averages of those three determinations. Protein concentrations were measured by the method of Bradford (Anal. Biochem., 72, 248-254 (1976)) with bovine serum albumin as a standard.

[2] = test system: human EST; assay: Optimization of EST assay conditions and preferred substrate; assay type: biochemical; conditions: compared with estradiol-17β, ethinyl estradiol or DHEA
Source text: 1. Identification of the preferred substrate for human EST.
2. Optimization of EST assay conditions. Estrone was used as the substrate to determine optimal assay conditions and, subsequently, to characterize the properties of human EST.

[3] = biological target: T2, human liver DHEA ST (Homo sapiens, UniProt Q06520); assay: DCNP inhibition of DHEA ST activity; assay type: biochemical; set-up: expressed in transfected cells; host or cells: COS-1 cells; high-speed supernatant; conditions: DHEA as substrate; expressed in COS-1 cells; read-out: mean DCNP concentration at which DHEA ST activity was 50% inhibited
T2 sequence (Q06520 1-285): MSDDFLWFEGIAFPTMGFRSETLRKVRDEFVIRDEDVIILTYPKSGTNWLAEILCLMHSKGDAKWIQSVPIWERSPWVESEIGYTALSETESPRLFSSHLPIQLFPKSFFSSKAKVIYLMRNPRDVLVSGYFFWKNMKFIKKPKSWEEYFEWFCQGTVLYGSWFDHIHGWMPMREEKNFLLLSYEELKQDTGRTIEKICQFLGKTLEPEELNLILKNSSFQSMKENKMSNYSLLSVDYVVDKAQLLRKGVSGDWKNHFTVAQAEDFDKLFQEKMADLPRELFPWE
Method: (§1) D. DCNP inhibition of EST activity. […] EST activity (using its preferred substrate, estrone) and DHEA ST activity (using its preferred substrate, DHEA) were 50% inhibited at very similar mean DCNP concentrations, 28±2.9 and 40±2.3 μM, respectively (FIG. 4B).

[4] = biological target: T1, human liver EST; assay: DCNP inhibition of EST activity; assay type: biochemical; set-up: expressed in transfected cells; host or cells: COS-1 cells, vector p91023(B); 100,000×g high-speed supernatant; conditions: estrone as substrate; expressed in COS-1 cells; read-out: mean DCNP concentration at which EST activity was 50% inhibited
Method: as §1

[5] = biological target: T2, human liver DHEA ST; conditions: 75 mM NaCl; DHEA as substrate
Method: (§2) Biochemical characterization of human EST were carried out using aliquots of HSS from COS-1 cells transfected with human liver EST cDNA. Parallel experiments were performed with human liver DHEA ST cDNA (D. M. Otterness et at., Mol. Pharmacol., 41, 865-872 (1992)) that had also been transiently expressed in COS-1 cells.
(§3) E. Effect of NaCl concentration on EST activity.

[6] = biological target: T1, human liver EST; conditions: 150 mM NaCl; estrone as substrate; expressed in COS-1 cells
Method: as §2, §3

[7] = substrate: C[C@]12CC[C@@H]3c4ccc(O)cc4CC[C@H]3[C@@H]1CCC2=O; assay: Substrate kinetics (apparent Km) of ST activity, DHEA ST; assay type: biochemical, human; conditions: other: substance is the substrate; DHEA ST cDNA expressed in COS-1 cells
Method: (§4) B. Kinetics of ST activity. Substrate kinetic studies designed to estimate apparent Km values were performed. Since human liver EST and DHEA ST can both catalyze the sulfation of steroids, these studies presented an opportunity to determine apparent Km values of the two enzymes with estrone and DHEA as substrates. Both enzyme preparations were tested with a range of estrone and DHEA concentrations. […] Apparent Km values were calculated by the method of Wilkinson (Biochem. J., 80, 324-332 (1961)) with a computer program written by Cleland (Nature, 198, 463-465 (1963)).

[8] = substrate: C[C@]12CC[C@H](O)CC1=CC[C@@H]1[C@@H]2CC[C@]2(C)C(=O)CC[C@@H]12; assay: as above; assay type: biochemical, human; conditions: other: substance is the substrate; DHEA ST cDNA expressed in COS-1 cells
Method: as §4

[9] = biological target: T2, human liver DHEA ST; assay: Thermal inactivation of ST activity, DHEA ST; assay type: physicochemical; set-up: expressed in transfected cells; host or cells: COS-1 cells; high-speed supernatant; conditions: preincubated 15 minutes; DHEA as substrate; HSS from COS-1 cells
Method: (§5) C. Thermal inactivation of ST activity. […] The temperatures at which 50% inactivation of EST (using its preferred substrate, estrone) and DHEA ST (using its preferred substrate, DHEA) activities occurred were 38.2±0.12 (mean±SEM) and 41.1±0.10° C., respectively (FIG. 4A). For the thermal inactivation experiment, HSS from COS-1 cells transfected with EST cDNA or DHEA ST cDNA was diluted 1:2 (v/v) with 5 mM potassium phosphate buffer, pH 6.5, preincubated at various temperatures for 15 minutes and was then placed on ice. An aliquot of the same preparation was kept on ice as a control. Each aliquot was then diluted further for assay of the ST activity being measured. Values for controls were determined at each temperature studied.

[10] = substrate: C[C@]12CC[C@@H]3c4ccc(O)cc4CC[C@H]3[C@@H]1CCC2=O; assay: Substrate kinetics (apparent Km) of ST activity, EST; assay type: biochemical, human; conditions: other: substance is the substrate; EST cDNA expressed in COS-1 cells
Method: as §4

[11] = substrate: C[C@]12CC[C@H](O)CC1=CC[C@@H]1[C@@H]2CC[C@]2(C)C(=O)CC[C@@H]12; assay: as above; assay type: biochemical, human; conditions: other: substance is the substrate; EST cDNA expressed in COS-1 cells
Method: as §4

[12] = biological target: T1, human liver EST; assay: Thermal inactivation of ST activity, EST; assay type: physicochemical; set-up: expressed in transfected cells; host or cells: COS-1 cells, vector p91023(B); 100,000×g high-speed supernatant; conditions: preincubated 15 minutes; estrone as substrate; HSS from COS-1 cells
Method: as §5

Molecule: C[C@]12CC[C@H](O)CC1=CC[C@@H]1[C@@H]2CC[C@]2(C)C(=O)CC[C@@H]12 [DHEA, dehydroepiandrosterone]
- sulfation catalyzed by the protein encoded by the human liver EST cDNA [1]: 2.3 units/mg protein

Molecule: C[C@]12CC[C@@H]3c4ccc(O)cc4CC[C@H]3[C@@H]1CCC2=O [estrone]
- ST enzyme activity as sulfate acceptor substrate, compared with other substrates [2]: greater ST enzyme activity
- sulfation catalyzed by the protein encoded by the human liver EST cDNA [1]: 9 units/mg protein

Molecule: NCCc1ccc(O)c(O)c1 [dopamine]
- sulfation catalyzed by the protein encoded by the human liver EST cDNA [1]: not

Molecule: O=[N+]([O-])c1cc(Cl)c(O)c(Cl)c1 [DCNP, 2,6-dichloro-4-nitrophenol]
- IC50 [3]: 40 ± 2.3 µM
- IC50 [4]: 28 ± 2.9 µM

Molecule: O=[N+]([O-])c1ccc(O)cc1 [4-nitrophenol]
- sulfation catalyzed by the protein encoded by the human liver EST cDNA [1]: 5 units/mg protein

Molecule: [Cl-].[Na+] [NaCl]
- peak activation of human liver DHEA ST [5]: 62%
- increase of human liver EST activity [6]: 86%

B1: human liver DHEA ST (Homo sapiens) (protein)
chain: T2 sequence (Q06520 1-285)
notes: expressed in transfected cells; host or cells: COS-1 cells; high-speed supernatant
- Km [7]: 3.1 µM
- Km [8]: 2.6 µM
- temperature at which 50% inactivation of DHEA ST activity occurred (mean±SEM) [9]: 41.1±0.10 °C

B2: human liver EST (Homo sapiens) (protein)
chain: T1 sequence (P49888 1-294)
notes: expressed in transfected cells; host or cells: COS-1 cells, vector p91023(B); 100,000×g high-speed supernatant
- Km [10]: 0.17 µM
- Km [11]: 0.85 µM
- temperature at which 50% inactivation of EST activity occurred (mean±SEM) [12]: 38.2±0.12 °C
